Here are results for one molecule from US20200087248A1, “Fluoroallylamine Derivative And Use Thereof” (SICHUAN KELUN-BIOTECH BIOPHARMACEUTICAL CO., LTD., priority 2017, published 2020).

Data set [1] relates to Caco-2 cells. In words: Caco-2 permeation experiment. Format: in vitro ADME. The conditions noted are these: 2 μM. On the procedure: (§1) Caco-2 Permeation Experiment
(§2) Culture medium: 10%FBS+1% unnecessary amino acid+90%DMEM (high glucose)
(§3) Permeation solution (pH 7.4): HBSS (Ca^+, Mg^+)+10 mM Hepes
(§4) Compound reservation solution: an amount of the test compound was weighted and added with a certain amount of DMSO to formulate a 10 mM reservation solution.
(§5) Cells were inoculated to Transwell cells in a quantity of 6*10^4/cm^2, and at the A side (top side), were added with 200 μL of the culture medium, and at the B side (base side), were added with 1000 μL of the culture medium. After the inoculation, the solution was replaced once every 2 days, and the culture was conducted for 21 to 28 day.
(§6) After 21 to 28 days since the inoculation of Caco-2 cells, the transmembrane resistance was measured.
(§7) Permeation experiment: after the transepithelial electrical resistance was measured, the buffer solution at the two sides was removed by suction, then added thereto the solution according to the following system.
(§8) According to the experimental conditions as shown in the following Table 15, the reaction solution in each experimental group was formulated: […]
(§9) Sample treatment: after 2-hours incubation, 50 μL of the permeation solution were sucked up from each side of side A and side B, and equivalent volume of cold acetonitrile was added to terminate the reaction, and the concentrations of the compound at the A and B sides were measured by LC-MS/MS. The apparent permeation (Papp) and the Efflux Ratio were calculated according to the following equations:
(§10) Efflux Ratio=Papp(BA)/Papp (AB)
(§11) wherein, dCr/dt is the integration of the concentration of the compound at the base side realted to time, Vr is the reaction volume at the base side, A is the area of a single layer of cells, being 0.33 cm^2, and C0 is the concentration of the compound at the top side.

Data set [2] is described as follows: Caco-2 permeation experiment. Type of data set: in vitro ADME. The conditions noted are these: human. Here is the method: as §1, §2, §3, §4, §5, §6, §7, §8, §9, §10, §11
A short description of data set [3]: Stability in liver microsomes, human. Format: in vitro ADME. On the procedure: (§12) Stability of Liver Microsomes
(§13) Formulation of a compound reservation solution: the test compound, diclofenac acid, testosterone and propafenone were weighted in appropriate amounts, and calibrated by adding about 1 mL of DMSO to provide a 10 mM reservation solution, then stored in a 4° C. refrigerator;
(§14) Formulation of a compound working solution: 10 μL of the reservation solution were added to 990 μL acetonitrile-water (1:1) to provide a middle solution having a concentration of 100 μM, and 120 μL of the middle solution is further diluted with 2880 μL PBS to provide a 4 μM working solution; […]
(§15) After being incubated for a certain period of time, an equivalent volume of cooled acetonitrile (4° C.) was added to terminate the reaction, and LC-MS/MS was used to determine the concentrations of the compound after being incubated in various liver microsomes for different time periods. With the incubation time as the horizontal ordinate and the natural logarithm of the percentages of the remained compound at each time point as the longitudinal coordinate, a diagram was plotted, wherein the slope was the velocity constant (Ke), and the half-life (T1/2) and clearance rate (CLliver) of the compound were calculated according to the following equation to evaluate the staiblity of the compound in the liver microsomes. […]

The nature of data set [4]: Stability in liver microsomes, mouse. Type of data set: in vitro ADME. Here is the method: as §12, §13, §14, §15
A short description of data set [5]: Rat PK experiment. Format: in vivo, Male rats. As to conditions: male; for AUC(0-inf) / Cmax / half-life: rat blood plasma. On the procedure: Male rats were intravenously (iv) and intragastrically (po) administered the test compounds respectively, and LC-MS/MS was used to measure the blood plasma concentration of the compound in the bodies of the rat. The main pharmacokinetic parameters were calculated by utilizing WinNonlin 6.3 software.

Data set [6] is described as follows: Stability in liver microsomes, monkey. Type of data set: in vitro ADME. Here is the method: as §12, §13, §14, §15
The nature of data set [7]: Stability in liver microsomes, dog. Type of data set: in vitro ADME. On the procedure:
as §12, §13, §14, §15

Data set [8] in a line: Stability in liver microsomes, rat. Format: in vitro ADME. On the procedure:
as §12, §13, §14, §15

Counter-ions that a name gives are not always drawn.

As to `CC1(C)Cc2cc(OC/C(=C/F)CN)ccc2C(=O)N1` [HC38-E, (E)-6-((2-(aminomethyl)-3-fluoroallyl)oxy)-3,3-dimethyl-3,4-dihydroisoquinolin-1(2H)-one hydrochloride], the “Average apparent permeability A to B” value in data set [1] (120 min, pH 7.4) is “high permeability”. Also, the Efflux ratio entry in data set [1] (Papp(BA)/Papp(AB)) is on record as “low possibility of active efflux”. The Papp A→B at 120 min, 2 μM in data set [2] (Caco-2, 120 min, pH 7.4, read-out: Average apparent permeability A to B) worked out at 2.6 ×10⁻⁶ cm/s. In addition, the Papp B→A at 120 min, 2 μM in data set [2] (Caco-2, 120 min, pH 7.4, read-out: Average apparent permeability B to A) was 3.26 ×10⁻⁶ cm/s. The efflux ratio at 2 h, 2 μM in data set [2] (Caco-2, pH 7.4, Papp(BA)/Papp(AB)) stood at 1.26. For the same molecule, the “T1/2 in liver microsomes” value in data set [3], in data set [4] (Mouse), in data set [6] (Monkey), in data set [7] (Dog) and in data set [8] (Rat) was “long half-life” each time. Also, the half-life in data set [3] (liver microsomes, read-out: T1/2 in liver microsomes) is 44.6 h; in data set [4] (mouse, liver microsomes, read-out: T1/2 in liver microsomes), 13.8 h; in data set [5] (iv 3 mg/kg), 1.43 ± 0.15 h; in data set [5] (po 3 mg/kg), 1.37 ± 0.01 h; in data set [6] (monkey, liver microsomes, read-out: T1/2 in liver microsomes) it was 20.8 h; in data set [7] (dog, liver microsomes, read-out: T1/2 in liver microsomes), 118 h. For the same molecule, the half-life in data set [8] (rat, liver microsomes, read-out: T1/2 in liver microsomes) came out at 14.2 h. For the same molecule, in data set [5] (plasma, rat, po 3 mg/kg), the bioavailability was found to be 89.9%. The AUC(0-inf) in data set [5] (iv 3 mg/kg) was 1160 ± 120 ng·h/mL; in data set [5] (po 3 mg/kg) it was 1040 ± 129 ng·h/mL. In addition, the results for the Cmax in data set [5] (iv 3 mg/kg) and in data set [5] (po 3 mg/kg) were 1040 ± 181 ng/mL and 343 ± 24 ng/mL, respectively.
